What was measured:
[1] = test system: ABCA1 mRNA in Hepa1-6 (mouse hepatocytes); assay: ABCA1 mRNA in Hepa1-6 hepatocytes; type: cell-based; conditions: Study K, 250 μg/mL, 6 hours
Description: HepG2 (human hepatocytes) and Hepa1-6 (mouse hepatocytes) were seeded on 6 well plates (300,000 cells/well) in DMEM 10% FCS. […] Gene expression was assayed using the protocols described in Sections 8.3.2 (RNA extraction); 8.3.4 (reverse transcription), and 8.3.5 (qPCR). ABCA1 (Taqman probe Hs01059118.m1 and Mm00442646.m1 for respectively HepG2 and Hepa1-6) and SR-BI (Taqman probe Hs00969821.m1 and Mm00450234.m1 for respectively HepG2 and Hepa1-6) expression was determined according to the manufacturer's protocol. The reference gene used is HPRT1 (Taqman probe: Mm00446968.m1) for Hepa1-6 and GAPDH (Taqman probe: Hs03929097.g1) for HepG2 cells.

[2] = test system: ligatured carotid from apoE−/− mice; assay: Cholesterol content of ligatured left carotids, apoE−/− mice on high fat diet; type: in vivo, mouse; conditions: 8 injections
Description: The formulation was injected in the retro-orbital vein (50 μL/mouse) of mice anaesthetized with isoflurane, once every 2 days for 8 injections. The dose administered was based on the mean of mice bodyweight in each cage. The compounds were injected at 10 AM every day. For blood sampling, mice fasted overnight were sampled once at the indicated dose: (1) at predose (at 9 AM) by retro-orbital withdrawal: 24 hours before the first injection/day of surgery; (2) at postdose (at 9 AM) by retro-orbital withdrawal: 24 hours after the last injection; and (3) at t=0 (9 AM) and the indicated time points after the 5th injection by caudal withdrawal. Immediately after collection, blood samples were kept at ca. +4° C. to avoid alteration of the blood sample. Blood specimens were centrifuged (800×g for 10 minutes at +4° C.) and plasma was saved for future analysis.
This study examined the effect of CER-001 administration on plaque progression in ligatured carotid from apoE^−/− mice fed with a high fat diet. For each group of mice, the cholesterol content of the carotid was tested after lipid extraction and HPLC analysis. The ligatured carotids were collected the day of sacrifice and stored at −80° C. The lipids were extracted with an organic solution and the cholesterol concentration was determined by HPLC.
Ligatured carotids were lipid extracted according to the method of Section 9.2.9. The surgical straps were removed from the carotid (fresh weight) and the tissue was introduced in a glass tube. To this was added 1.8 mL of CHCl3/MeOH (2:1) and mixed overnight at 4° C. The carotid was then removed, dried and weighed and the organic solution (CHCl3/MeOH) was split in two glass tubes in equal volumes. For unesterified cholesterol (UC), 100 μL of β-sitosterol (internal standard) was added and the solution was dried. To this was added 200 μL EtOH for solubilisation of the sample and the sample was analyzed UC by HPLC. […] To this was added 200 μL EtOH for solubilisation of the sample and analysed TC by HPLC. The cholesterol concentration was determined by HPLC according to the method of Section 9.2.7. […]

[3] = CHI SQUARE plasma ApoA-I, phospholipid and total cholesterol after infusion; type: in vivo, human
Text: 504 subjects presenting with acute chest pain or other angina equivalent symptoms, indicative of a diagnosis of ST segment elevation myocardial infarction, non-ST elevation myocardial infarction or unstable angina were enrolled. To be eligible, subjects must have angiographic evidence of coronary artery disease as defined by at least one lesion in any of the three major native coronary arteries that has >20% reduction in lumen diameter by angiographic visual estimation or prior history of percutaneous coronary intervention (“PCI”). The target vessel for PCI was not the target coronary artery for research IVUS, and any vessel with previous PCI could not be used as the target coronary artery.

[4] = test system: SR-BI in mouse liver; assay: SR-BI protein content in mouse liver; type: in vivo; conditions: 24 hours after the last injection; increasing concentrations
Description: This study examined the SR-BI and ABCA1 protein content in the liver 24 hours after the last injection of CER-001. A piece of liver (50 mg) was lysed in PBS (500 μL) by brief sonication. The sample was centrifuged (800×g for 10 minutes) and the pellet was discarded. The supernatant was centrifuged for 30 minutes at 16,000×g at 4° C. and the pellet was solubilized with PBS 1% Triton X100 (200 μL). 10 μg of solubilized pellet was loaded on SDS PAGE 10% and ABCA1 expression (ab7360—dilution 1/1000) or SR-BI expression (ab24603—dilution 1/1000) was quantified using imageJ® software.

[5] = test system: carotid artery and aorta vessel wall; assay: SAMBA trial: mean vessel wall thickness by 3Tesla MRI; type: in vivo, human
Description: The patients were initially treated in an intense “induction phase,” receiving 9 doses of CER-001 at a dose of 8 mg/kg over 4 weeks. After this induction phase, the study subjects were re-evaluated with lipoprotein profiles and an MRI scan. Subsequently, the study subjects continued to be treated once every two weeks in a “maintenance phase” for 6 months' total therapy. At that point the lipoprotein profiles and MRI scans were repeated.
FIG. 70 and FIG. 71 show the mean carotic and aortic vessel wall thickness, respectively, on a patient-by-patient basis after one month of treatment. Mean vessel wall thickness of the carotid artery decreased by a mean of −6.4% after one month of induction therapy, and mean vessel wall thickness of the aorta decreased by a mean of −4.6% after one month of induction therapy. The homozygous ApoA-I deficiency patient experienced a −17% regression of carotid mean vessel wall thickness. […] Mean vessel wall thickness was determined by 3Tesla MRI.

[6] = Infusion 1, preserved at Infusion 6
[7] = mean of subjects, one month of induction therapy, 8 mg/kg

Q: What does the source list for “CER-001: engineered recombinant human apolipoprotein A-I HDL with sphingomyelin and DPPG; protein-to-phospholipid ratio 1:2.7, 97% Sph and 3% DPPG”?
A: ABCA1 mRNA level [1]: two-fold decrease; decrease in total cholesterol contents in ligatured carotids ([2]; 2, 5 and 10 mg/kg): 50%; decrease in unesterified cholesterol in ligatured carotids ([2]; 2, 5 and 10 mg/kg): 25%; inhibition of plaque progression ([2]; 20 and 50 mg/kg): around 10%; potency (plasma total cholesterol increase) relative to ETC-216 ([3]; CER-001 at 3 mg/kg): comparable to ETC-216 at 15 mg/kg; plasma apolipoprotein A-I after IV administration [3, 6]: increases in a dose-dependent manner; plasma phospholipids after IV administration [3, 6]: increase in a dose dependent manner; plasma total cholesterol after IV administration [3, 6]: increases in a dose-dependent manner; slope ratio of phospholipids and ApoA-I dose response curves ([3]; in vivo): 2.8; liver SR-BI protein level [4]: no significant changes; benefit on vessel wall thickness ([5]; after an additional 5 months of maintenance therapy): persistent and cumulative benefit; regression of carotid mean vessel wall thickness ([5]; homozygous ApoA-I deficiency patient): −17%; change of mean vessel wall thickness of the aorta [5, 7]: −4.6%; change of mean vessel wall thickness of the carotid artery [5, 7]: −6.4%

— patent publication US20180203025A1, “HDL THERAPY MARKERS” (Cerenis Therapeutics Holding SA, priority 2014, published 2018)
